The text below walks through data of patent US7667052B2 (Eisai R&D Management Co., Ltd., priority 2003, dated 2010).

Each structure is given as a SMILES string. Like-named read-outs stand apart in the source and are kept apart here.

In the experiment the test system is transcription from VEGF promoter. The experiment is described as follows: VEGF transcription-suppressing activity, VEGF-PLAP reporter in U251/1-8 cell. It is filed as cell-based. The conditions noted are these: Homo sapiens, U-251, U251/1-8 cell, PLAP activity, low oxygen 18 hours. The source says: In order to prepare reporter system reflecting transcription from VEGF promoter, VEGF promoter sequence was cloned, and inserted in secretory alkali phosphatase (PLAP) vector to construct reporter vector.
In order to obtain the promoter region of human VEGF, VEGF genome was cloned from phage library. PCR primers having the sequences described in Sequence Numbers 1 and 2 were designed based on VEGF cDNA (GenBank accession number: X62568) and a fragment having about 340 bp was obtained by carrying out PCR. Human genome phage library (Human genomic library, Clontech Co.) was screened using this as a probe to obtain pUC18-VEGFA containing about 5.4 kb of VEGF 5′ flanking region. The pUC18-VEGFA was cleaved by KpnI/NheI, VEGF promoter region of about 2.3 kb obtained was inserted in the multi cloning site KpnI/NheI of secretory alkali phosphatase (PLAP) vector (Goto et al, Mol. Pharmacol., 49, 860-873, 1996), and thus, VEGF-PLAP vector was constructed.
The above-mentioned VEGF-PLAP vector was introduced in the U251 cell cultured in the DULBECCO-modified eagle medium (DMEM; manufactured by SIGMA Co., Ltd.) containing 10% fetal calf serum, and cultured in the presence of 1 mg/ml G418 (Merck Co.) to establish G418 resistant stable clone (U251/1-8 cell).
It was confirmed that U251/1-8 cell secreted PLAP under low oxygen (2% O2 incubator) in the same manner as in the report (Cell. Mol. Biol. Res. 40, 35-39, 1994) and was a reporter system reflecting the transcription from VEGF promoter. The screening of the compound suppressing VEGF production which was induced by low oxygen stimulation was carried out below using the clone.
In order to remove the influence of alkaline phosphates in serum, U251/1-8 cell was rinsed twice with the adequate amount of PBS (Phosphate buffered saline), diluted in the DMEM medium containing 10% of serum in which alkaline phosphates was inactivated by the treatment of 60° C. for 20 min., and dispensed in 96-well plates by 4×10^4 cells/180 μl.
After culturing at 37° C. overnight in a CO2 incubator (5% CO2), 20 μL of the above-mentioned incubation solution containing the test compound diluted with 3-fold succession was added, and then they were incubated in a low oxygen ([…]) incubator for 18 hours. With respect to the PLAP activity in the culture supernatants, 10 μl of the supernatants was added to 50 μl of 0.28 M Na2CO3—NaHCO3 buffer solution (pH 10.0, 8.0 mM MgSO4), and finally 50 μl of alkaline phosphatase substrate (LUMISTEIN, Genomescience Co.) was added. After reacting for one hour, the alkaline phosphatase activity of the PLAP was measured by detecting the chemical luminescence by a micro plate reader (Perkin-Elmer Co.).
The PLAP activity under usual oxygen was set as 0%, the PLAP activity of cell which was treated under low oxygen was set as 100%, and the concentration suppressing the PLAP activity by 50% was set as the IC50 value of PLAP.

Where [1] appears, read: read-out: IC50 values of VEGF transcription-suppressing activity (range given).

A word on the IC50: it is the concentration needed to halve the response being measured.

As to `CCC(O)C(C)C1OC1CC(C)/C=C/C=C(\C)C1OC(=O)CC(O)CCC(C)(O)C(OC(=O)NCCCN(C)C)/C=C/C1C` (stereo not shown) [B55, (8E,12E,14E)-7-(N-(3-Dimethylamino)propyl)carbamoyloxy-3,6,21-trihydroxy-6,10,12,16,20-pentamethyl-18,19-epoxytricosa-8,12,14-trien-11-olide], under setting [1], the IC50 lay in the range of 0.5 to 100 nM.
As to `CCC(O)C(C)C1OC1CC(C)/C=C/C=C(\C)C1OC(=O)CC(O)CCC(C)(O)C(OC(=O)NCc2ccncc2)/C=C/C1C` (stereo not shown) [B58, (8E,12E,14E)-3,6,21-Trihydroxy-6,10,12,16,20-pentamethyl-7-N-(4-pyridylmethyl)carbamoyloxy-18,19-epoxytricosa-8,12,14-trien-11-olide], the IC50 under setting [1] is 0.5 to 100 nM.
Still for that read-out and setting: then `CCC(OC(C)=O)C(C)C(OC(C)=O)C(Cl)CC(C)/C=C/C=C(\C)C1OC(=O)CC(O)CCC(C)(O)C(OC(C)=O)/C=C/C1C` (stereo not shown) [B21-4, (8E,12E,14E)-7,19,21-triacetoxy-18-chloro-3,6-dihydroxy-6,10,12,16,20-pentamethyltricosa-8,12,14-trien-11-olide], with 0.5 to 100 nM; and `CCC(O)C(C)C1OC1CC(C)/C=C/C=C(\C)C1OC(=O)CC(O)CCC(C)(O)C(OC(=O)N2CC(C)NCC2C)/C=C/C1C` (stereo not shown) [B67, (8E,12E,14E)-3,6,21-Trihydroxy-6,10,12,16,20-pentamethyl-7-((2,5-dimethylpiperazin-1-yl)carbonyl)oxy-18,19-epoxytricosa-8,12,14-trien-11-olide], with 0.5 to 100 nM.
`CCC(O)C(C)C(O)C(Cl)CC(C)/C=C/C=C(\C)C1OC(=O)CC(O)CCC(C)(O)C(OC(C)=O)/C=C/C1C` (stereo not shown) [B1-2, (8E,12E,14E)-7-acetoxy-18-chloro-3,6,19,21-tetrahydroxy-6,10,12,16,20-pentamethyltricosa-8,12,14-trien-11-olide]: the IC50 under setting [1] lay in the range of 0.5 to 100 nM.
On to `CCC(O)C(C)C1OC1CC(C)/C=C/C=C(\C)C1OC(=O)CC(O)CCC(C)(O)C(OC(=O)NC2CCN(C)CC2)/C=C/C1C` (stereo not shown) [B79, (8E,12E,14E)-3,6,21-Trihydroxy-6,10,12,16,20-pentamethyl-7-N-(1-methylpiperidin-4-yl)carbamoyloxy-18,19-epoxytricosa-8,12,14-trien-11-olide], for which, under setting [1], the IC50 fell in the range of 0.5 to 100 nM.
Regarding `CCC(O)C(C)C1OC1CC(C)/C=C/C=C(\C)C1OC(=O)CC(O)CCC(C)(O)C(OC(=O)NCCN2CCCCC2)/C=C/C1C` (stereo not shown) [B63, (8E,12E,14E)-3,6,21-Trihydroxy-6,10,12,16,20-pentamethyl-7-N-(2-(piperidin-1-yl)ethyl)carbamoyloxy-18,19-epoxytricosa-8,12,14-trien-11-olide], the IC50 under setting [1] is 0.5 to 100 nM.
On the same count and under the same terms, as for `CCOCC(=O)OC(CC)C(C)C1OC1CC(C)/C=C/C=C(\C)C1OC(=O)CC(O)CCC(C)(O)C(OC(C)=O)/C=C/C1C` (stereo not shown) [B25, (8E,12E,14E)-7-Acetoxy-21-ethoxyacetoxy-3,6-dihydroxy-6,10,12,16,20-pentamethyl-18,19-epoxytricosa-8,12,14-trien-11-olide], the figure is 0.5 to 100 nM.
As for `CC/C(=N\OCc1ccccc1)C(C)C1OC1CC(C)/C=C/C=C(\C)C1OC(=O)CC(O)CCC(C)(O)C(OC(C)=O)/C=C/C1C` (stereo not shown) [B75, (8E,12E,14E)-7-Acetoxy-21-benzyloxyimino-3,6-dihydroxy-6,10,12,16,20-pentamethyl-18,19-epoxytricosa-8,12,14-trien-11-olide], under setting [1], the IC50 lay within 0.5 to 100 nM.
On to `CCC(O)C(C)C1OC1C(O)C(C)/C=C/C=C(\C)C1OC(=O)CC(O)CCC(C)(O)C(OC(C)=O)/C=C/C1C` (stereo not shown) [11107P], for which the concentration for half-maximal inhibition (IC50) under setting [1] is 1 to 100 nM.
As to `CCC(OC(C)=O)C(C)C1OC1CC(C)/C=C/C=C(\C)C1OC(=O)/C=C\CCC(C)(O)C(OC(C)=O)/C=C/C1C` (stereo not shown) [B43-1, (2Z,8E,12E,14E)-7,21-Diacetoxy-6-hydroxy-6,10,12,16,20-pentamethyl-18,19-epoxytricosa-8,12,14-trien-11-olide], the IC50 under setting [1] was 0.5 to 100 nM.
On the same count and under the same terms, as for `CCC(O)C(C)C1OC1CC(C)/C=C/C=C(\C)C1OC(=O)CC(OC(=O)N2CCC(N3CCCCC3)CC2)CCC(C)(O)C(OC(C)=O)/C=C/C1C` (stereo not shown) [B37-1], the figure is 0.5 to 100 nM.
In the case of `CCC(O)C(C)C1OC1CC(C)/C=C/C=C(\C)C1OC(=O)CC(OC(N)=O)CCC(C)(O)C(OC(C)=O)/C=C/C1C` (stereo not shown) [B35-1, (8E,12E,14E)-7-Acetoxy-3-carbamoyloxy-6,21-dihydroxy-6,10,12,16,20-pentamethyl-18,19-epoxytricosa-8,12,14-trien-11-olide], under setting [1], the IC50 is 0.5 to 100 nM.
For `CCC(O)C(C)C1OC1CC(C)/C=C/C=C(\C)C1OC(=O)CC(O)CCC(C)(O)C(OC(=O)N2CCC(O)CC2)/C=C/C1C` (stereo not shown) [B48, (8E,12E,14E)-3,6,21-Trihydroxy-7-((4-hydroxypiperidin-1-yl)carbonyl)oxy-6,10,12,16,20-pentamethyl-18,19-epoxytricosa-8,12,14-trien-11-olide], under setting [1], the IC50 lay within 0.5 to 100 nM.
In the case of `CCC(O)C(C)C1OC1CC(C)/C=C/C=C(\C)C1OC(=O)CC(O)CCC(C)(O)C(OC(=O)N2CCOCC2)/C=C/C1C` (stereo not shown) [B49, (8E,12E,14E)-3,6,21-Trihydroxy-6,10,12,16,20-pentamethyl-7-((morpholin-4-yl)carbonyl)oxy-18,19-epoxytricosa-8,12,14-trien-11-olide], under setting [1], the IC50 is 0.5 to 100 nM.
As to `CCC(O)C(C)C(OC(C)=O)C(Cl)CC(C)/C=C/C=C(\C)C1OC(=O)CC(OC(C)=O)CCC(C)(O)C(OC(C)=O)/C=C/C1C` (stereo not shown) [B21-3, (8E,12E,14E)-3,7,19-triacetoxy-18-chloro-6,21-dihydroxy-6,10,12,16,20-pentamethyltricosa-8,12,14-trien-11-olide], the IC50 under setting [1] was in the range of 0.5 to 100 nM.
For `CCC(OC(C)=O)C(C)C1OC1CC(C)/C=C/C=C(\C)C1OC(=O)CC(O)CCC(C)(O)C(OC(C)=O)/C=C/C1C` (stereo not shown) [B20-2, (8E,12E,14E)-7,21-diacetoxy-3,6-dihydroxy-6,10,12,16,20-pentamethyl-18,19-epoxytricosa-8,12,14-trien-11-olide], the IC50 is 0.5 to 100 nM under setting [1] and 1.6 nM (read-out: VEGF transcription suppressing activity (IC50: nM)).
On to `CCC(OC)C(C)C1OC1CC(C)/C=C/C=C(\C)C1OC(=O)CC(O)CCC(C)(OC)C(OC(C)=O)/C=C/C1C` (stereo not shown) [B8-2, (8E,12E,14E)-7-acetoxy-3-hydroxy-6,21-dimethoxy-6,10,12,16,20-pentamethyl-18,19-epoxytricosa-8,12,14-trien-11-olide], for which, under setting [1], the IC50 was in the range of 0.5 to 100 nM.
On to `CCC(O)C(C)C1OC1CC(C)/C=C/C=C(\C)C1OC(=O)CC(O)CCC(C)(O)C(OC(=O)NCCCN2CCOCC2)/C=C/C1C` (stereo not shown) [B60, (8E,12E,14E)-3,6,21-Trihydroxy-6,10,12,16,20-pentamethyl-7-N-(3-(morpholin-4-yl)propyl)carbamoyloxy-18,19-epoxytricosa-8,12,14-trien-11-olide], for which the IC50 under setting [1] lay in the range of 0.5 to 100 nM.
Still for that read-out and setting: as for `CCC(OC)C(C)C1OC1CC(C)/C=C/C=C(\C)C1OC(=O)CC(O)CCC(C)(O)C(OC(C)=O)/C=C/C1C` (stereo not shown) [B8-1, (8E,12E,14E)-7-Acetoxy-3,6-dihydroxy-21-methoxy-6,10,12,16,20-pentamethyl-18,19-epoxytricosa-8,12,14-trien-11-olide], the figure is 0.5 to 100 nM; as for `CCC(O)C(C)C1OC1CC(C)/C=C/C=C(\C)C1OC(=O)CC(O)CCC(C)(O)C(OC(=O)N2CC(C)NC(C)C2)/C=C/C1C` (stereo not shown) [B81, (8E,12E,14E)-3,6,21-Trihydroxy-6,10,12,16,20-pentamethyl-7-((3,5-dimethylpiperazin-1-yl)carbonyl)oxy-18,19-epoxytricosa-8,12,14-trien-11-olide], 0.5 to 100 nM.
